The results in this text go back to patent US20260132123A1, “ABAD INHIBITOR COMPOUNDS” (UNIVERSITY COURT OF THE UNIVERSITY OF ST ANDREWS, priority 2021, published 2026).

A word on the EC50: it is the midpoint of the concentration-response curve.

In this experiment the target is T1, 17β-HSD10 (Homo sapiens, UniProt Q99714).
T1 construct: Histev (histidine tag with TEV site) (N, cleaved yes); made in house; host or cells: E. coli BL21-CodonPlus
T1 sequence (Q99714 1-261): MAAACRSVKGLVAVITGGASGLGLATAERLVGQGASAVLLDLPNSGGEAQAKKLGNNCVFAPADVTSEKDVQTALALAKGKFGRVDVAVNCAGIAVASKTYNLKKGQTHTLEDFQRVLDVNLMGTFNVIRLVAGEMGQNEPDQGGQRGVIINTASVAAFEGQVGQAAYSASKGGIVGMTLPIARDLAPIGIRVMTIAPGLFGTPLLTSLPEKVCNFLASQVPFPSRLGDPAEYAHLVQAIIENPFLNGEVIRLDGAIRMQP
Briefly: 17β-HSD10 (ABAD) enzyme inhibition assay, NADH oxidation read at 340 nm (primary screen and dose response). In kind it is biochemical. Conditions: for EC50 / Max. Effect (%) / Hill Slope / Max. Fit / Min. Fit: recombinant 17βHSD10 enzyme assay; for Hill Slope / Max. Fit / Min. Fit: curve fit. The method, then: Cell pellets of E. coli BL21-CodonPlus cells containing Histev-17β-HSD10 protein were re-suspended for 30 min, 4° C., in lysis buffer (20 mM NaH2PO4, 30 mM imidazole, 500 mM NaCl, 10% (v/v) glycerol, pH 7.5) with the addition of complete ethylenediaminetetraacetic acid (EDTA)-free protease inhibitor tablets (Roche), lysozyme (1 mg/mL), deoxyribonuclease (DNase) (20 μg/mL) and Triton X-100 (0.1% (v/v)). Cells were lysed by passage through a cell disruptor at 30 kPSI (Constant Systems Ltd) and the lysate was cleared by centrifugation (Sorvall Evolution RC, rotor S5-34 55-34 angle, 20500 rpm, 30 min, 4° C.). Cleared lysate was filtered (0.45 μm membrane; Whatman) then applied to a Ni-nitrilotriacetic acid (NTA) (GE Healthcare) column pre-washed with lysis buffer and protein eluted with 300 mM imidazole buffer (20 mM NaH2PO4, 300 mM imidazole, 500 mM NaCl, 10% (v/v) glycerol, pH 7.5). […] Protein digestion and dialysis was carried out at 4° C. for 16 h.
Complete digestion was firstly checked by sodium dodecyl sulfate-polyacrylamide gel electrophoresis (SDS-PAGE), then fully digested protein was passed over a second Ni-column and the flow-through, containing 17β-HSD10 protein, was concentrated using a Vivaspin column (10 kDa MWCO, GE Healthcare) to ˜7 mL before final purification using gel filtration to remove imidazole (Hi-Load 16/60 Superdex 75 prep grade column, GE Healthcare, flow rate 1.5 mL/min). Protein was eluted in gel filtration buffer (10 mM trisaminomethane (Tris-HCl), 150 mM NaCl, 10% glycerol, pH 7.5) and concentrated (Vivaspin column (10 kDa molecular weight cut off (MWCO), GE Healthcare)) to 10 mg/mL. Aliquots (10 μL) were taken and flash frozen in liquid nitrogen before final storage at −80° C.
The assay buffer used contains: 10 mM Tris. HCl (pH 7.4), 150 mM NaCl, 1 mM DTT, 0.005% Tween (polysorbate 20) and 0.01% bovine serum albumin (BSA). As indicated for some experiments the assay buffer was supplemented with 100 units/ml bovine liver catalase. All experiments were conducted in clear bottom 384-well or 1536-well low volume microplates (Corning) with a final assay volume of 20 μL and the reaction progress was monitored by oxidation of NADH as determined by reduction in absorbance at 340 nm read on the EnVision plate reader (PerkinElmer).
For primary screening an endpoint assay format was adopted in which an Echo acoustic liquid dispenser (Labcyte) was used to transfer 20 nL of either reference standard, dimethylsulfoxide (DMSO) control ([…] final assay concentration (FAC)) or test compounds (10 μM FAC) to the assay plate. 10 μL of 17β-HSD10 enzyme in assay buffer (2.5 nM, FAC) was then added to the plates using the Preddator liquid handling robot (Redd and Whyte) and plates were incubated at room temperature for 15 minutes. 10 μL of substrate mixture (100 μM acetoacetyl-CoA and 100 μM NADH, FAC) was added with the Preddator. To start the reaction and the plates were left to incubate for 35 minutes at room temperature before the absorbance at 340 nm was read on the EnVision plate reader (PerkinElmer). For kinetic assay format and dose response follow up experiments the same protocol was adopted but the absorbance at 340 nm was monitored constantly for 45 minutes from immediately after the reaction was started.

As for `CC(C)CN(C(=O)c1ccncn1)c1cccc(N(C)Cc2c[nH]cn2)c1` [ESC1002703], the EC50 was 8.71 µM, the “Max. Effect (%)” value was found to be 52%, the “Hill Slope” value came out at 1.3 and the “Max. Fit” value was found to be 70. Besides, the “Min. Fit” value is given as −5.
Taken in the same sequence, the figures for `CC(C)CN(C(=O)c1ccccc1F)c1cccc(N(C)Cc2cc[nH]n2)n1` [ESC1002796] were more than 20 µM, 47%, 1.2, 100 and −4.
For the molecule `CC(C)CN(C(=O)c1ccccc1F)c1cccc(N(CCO)Cc2c[nH]cn2)c1` [ESC1002723], the EC50 is 5.13 µM, the “Max. Effect (%)” value is reported as 81%, the “Hill Slope” value was 1.1 and the “Max. Fit” value was found to be 94. In addition, the “Min. Fit” value turned out to be 0.
Consider `O=C(c1sccc1Cl)N1CCC[C@H]1c1ccccc1-c1cccc2[nH]ncc12` (racemic) [ESC1002702], for which the “17β-HSD10 / ABAD activity in words (SAR discussion)” value (from here on “17β-HSD10 / ABAD activity in words”) is listed as “less active”, the EC50 was 1.26 µM, the “Max. Effect (%)” value is reported as 91% and the “Hill Slope” value came out at 0.91. Also, the “Max. Fit” value turned out to be 98 and the “Min. Fit” value is −9.
Consider `O=C(c1sccc1Cl)N1CCC[C@H]1c1ccccc1-c1ccc(F)c(O)c1` (single isomer, unassigned) [ESC1002838], for which the EC50 was 0.0513 µM, the “Max. Effect (%)” value was 99%, the “Hill Slope” value was determined as 1.2 and the “Max. Fit” value worked out at 97. The “Min. Fit” value was 0.
For `CCN(C(=O)c1ccccc1F)c1cccc2c1ncc(=O)n2Cc1cnc[nH]1` [S2−T2, N-ethyl-2-fluoro-N-[1-(1H-imidazol-5-ylmethyl)-2-oxo-1,2 dihydroquinoxalin-5-yl]benzamide], the EC50 is more than 20 µM and the “Max. Effect (%)” value is 4.8%.
Taken in the same sequence, the figures for `CC(C)CN(C(=O)c1ccccc1F)c1cccc(NCc2nc[nH]n2)c1` [ESC1002763] were more than 20 µM and 8%.
As to `COc1cccc(-c2ccccc2[C@H]2CCCN2C(=O)c2scnc2C)c1` [ESC1002430], the “17β-HSD10 / ABAD activity in words” value was “significantly less active”, the EC50 was 6.03 µM, the “Max. Effect (%)” value is recorded as 65% and the “Hill Slope” value stood at 1.2. Besides, the “Max. Fit” value was 80 and the “Min. Fit” value is −1.
Take `CC(C)CN(C(=O)c1ccccc1C(F)(F)F)c1cccc(N(C)Cc2c[nH]cn2)c1` [ESC1002493, N-[3-[1H-imidazol 4-ylmethyl(methyl)amino]phenyl]-N-isobutyl-2-(trifluoromethyl)benzamide]: the EC50 was 0.977 µM, the “Max. Effect (%)” value was 94%, the “Hill Slope” value was 0.75 and the “Max. Fit” value turned out to be 104. The “Min. Fit” value was −8.
Take `COc1cccc(-c2ccccc2[C@@H]2CCCN2C(=O)C23CC(C2)C3)c1` (racemic) [ESC1002602]: the EC50 was more than 20 µM and the “Max. Effect (%)” value is reported as 43%.
Taken in the same sequence, the figures for `O=C(c1sccc1Cl)N1CCC[C@H]1c1ccccc1-c1cccc(O)c1` (single isomer, unassigned) [ESC1002754] were more than 20 µM and 20%.
For `CC(C)CN(C(=O)c1ccc(Cl)cc1F)c1cccc(N(C)Cc2cnc[nH]2)c1` [ESC1002042, 4-chloro-2-fluoro-N-[3-[1H-imidazol-5-ylmethyl(methyl)amino]phenyl]-N-isobutyl-benzamide], the EC50 is 0.316 µM, the “Max. Effect (%)” value is 98%, the “Hill Slope” value was found to be 0.8 and the “Max. Fit” value is listed as 101. For the same molecule, the “Min. Fit” value was −6. Besides, the “ABAD plC50” value (primary screening, resynthesized HTS hit compounds) was determined as 6.5.
In the case of `O=C(c1cocn1)N1CCC[C@H]1c1ccccc1` [S1−T10, 4-{[(2S)-2-phenylpyrrolidin-1-yl]carbonyl}-1,3-oxazole], the EC50 is more than 20 µM and the “Max. Effect (%)” value was determined as 20.5%.
The like results for `CCN(C(=O)C1CCCCN1C)c1cccc(N(C)Cc2cnc[nH]2)c1` (centres unmarked) [S2−T7, N-ethyl-N-[3-[1H-imidazol-5-ylmethyl(methyl)amino]phenyl]-1-methyl-piperidine-2-carboxamide] were, in that order, more than 20 µM and 27.9%.
The like results for `COc1cccc(-c2ccccc2[C@@H]2CCCN2C(=O)c2nc[nH]n2)c1` (racemic) [ESC1002599] were, in that order, more than 20 µM and 10%.
Consider `O=C(c1sccc1Cl)N1CCCC1c1ccccc1-c1cccc(O)c1` (racemic) [ESC1002666, (3-chlorothiophen-2-yl)(2-(3′-hydroxy-[1,1′-biphenyl]-2-yl)pyrrolidin-1-yl)methanone], for which the EC50 was 0.0589 µM, the “Max. Effect (%)” value was found to be 99%, the “Hill Slope” value is 1.1 and the “Max. Fit” value is recorded as 98. The “Min. Fit” value worked out at 0.
Take `O=C(c1ccccc1F)N1CCCc2ccc(NCc3cnc[nH]3)cc21` [ESC1002081, (2-fluorophenyl)-[7-(1H-imidazol-5-ylmethylamino)-3,4-dihydro-2H-quinolin-1-yl]methanone]: the “17β-HSD10 / ABAD activity in words” value is reported as “potency was abolished”, the EC50 was more than 20 µM and the “Max. Effect (%)” value is given as 0%.
`Cc1ccsc1C(=O)N1CCC[C@@H]1c1ccccc1-c1ccc(C2CC2)cc1` [ESC1002422]: the EC50 is 0.562 µM, the “Max. Effect (%)” value is given as 93%, the “Hill Slope” value was found to be 1.6 and the “Max. Fit” value is 90. The “Min. Fit” value worked out at 1.
With `CCc1ccc(C(=O)N(CC(C)C)c2cccc(N(C)Cc3c[nH]cn3)c2)cc1` [ESC1002459, 4-ethyl-N-[3-[1H-imidazol-4-ylmethyl(methyl)amino]phenyl]-N-isobutyl-benzamide], the EC50 was 0.832 µM, the “Max. Effect (%)” value came to 93%, the “Hill Slope” value turned out to be 1.2 and the “Max. Fit” value is reported as 94. Also, the “Min. Fit” value is recorded as −4.
Regarding `CC(C)CN(C(=O)c1ccc[nH]c1=O)c1cccc(N(C)Cc2c[nH]cn2)c1` [ESC1002614, N-[3-[1H-imidazol-4-ylmethyl(methyl)amino]phenyl]-N-isobutyl-2-oxo-1H-pyridine-3-carboxamide], the EC50 is more than 20 µM and the “Max. Effect (%)” value is listed as 30%.
For the molecule `C#CCN(C)c1cccc(N(CC(C)C)C(=O)c2ccccc2F)c1` [ESC1002636], the EC50 was 5.5 µM, the “Max. Effect (%)” value amounted to 79%, the “Hill Slope” value was 0.98 and the “Max. Fit” value is on record as 101. The “Min. Fit” value is on record as −1.
Taken in the same sequence, the figures for `CC(C)CN(C(=O)c1ccc(C(F)(F)F)cc1F)c1cccc(N(C)Cc2c[nH]cn2)c1` [ESC1002455, 2-fluoro-N-[3-[1H-imidazol-4-ylmethyl(methyl)amino]phenyl]-N-isobutyl-4-(trifluoromethyl)benzamide] were 1.26 µM, 92%, 0.99, 97 and −7.
In the case of `CN(Cc1cncn1C(=O)OC(C)(C)C)c1cccc(NC(=O)c2ccccc2F)c1` [ESC1002055], the half-maximal effective concentration (EC50) is more than 20 µM and the “Max. Effect (%)” value turned out to be 1%.
